According to PubChem BioAssay (NCI):
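A five-concentration, 48-hour dose response in 96-well plates underlies each endpoint, interpolated linearly between surrounding concentrations. Abbreviation: GI50, concentration required for 50% inhibition of growth. TGI: total growth inhibition.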

Key:
Experiment in all cases: inhibition of tumour cell growth, NCI panel, 48 h
LOX IMVI melanoma = test system: LOX IMVI melanoma
SK-MEL-2 melanoma = test system: SK-MEL-2 melanoma
U251 CNS = test system: U251 CNS
CAKI-1 renal = test system: CAKI-1 renal
RXF 393 renal = test system: RXF 393 renal
NCI/ADR-RES ovarian = test system: NCI/ADR-RES ovarian
DU-145 prostate = test system: DU-145 prostate
TK-10 renal = test system: TK-10 renal
SK-MEL-5 melanoma = test system: SK-MEL-5 melanoma
UACC-62 melanoma = test system: UACC-62 melanoma
PC-3 prostate = test system: PC-3 prostate
SR leukemia = test system: SR leukemia
HCT-116 colon = test system: HCT-116 colon
M14 melanoma = test system: M14 melanoma
MDA-MB-435 = test system: MDA-MB-435
MCF7 breast = test system: MCF7 breast
HOP-92 NSCLC = test system: HOP-92 NSCLC
SF-295 CNS = test system: SF-295 CNS
OVCAR-5 ovarian = test system: OVCAR-5 ovarian
SW-620 colon = test system: SW-620 colon
HOP-62 NSCLC = test system: HOP-62 NSCLC
UO-31 renal = test system: UO-31 renal
SNB-19 CNS = test system: SNB-19 CNS
CCRF-CEM leukemia = test system: CCRF-CEM leukemia
COLO 205 colon = test system: COLO 205 colon
NCI-H226 lung = test system: NCI-H226 lung
KM12 colon = test system: KM12 colon
NCI-H23 lung = test system: NCI-H23 lung

`CCN1C(=O)N(CC)C2SC(N/N=C/c3ccccc3)=NC21` (centres undefined) was tested. Which GI50 (LOX IMVI melanoma) did it give?
Its GI50 is 0.572 µM.

And the TGI (LOX IMVI melanoma)?
The TGI was > 100 µM.

And the GI50 (SK-MEL-2 melanoma)?
The GI50 was 0.317 µM.

What about the TGI (SK-MEL-2 melanoma) of the same compound?
The TGI was > 100 µM.

And the GI50 (U251 CNS)?
Its GI50 is 0.343 µM.

And the TGI (U251 CNS)?
Its TGI is > 100 µM.

And the GI50 (CAKI-1 renal)?
The GI50 was 0.403 µM.

What about the TGI (CAKI-1 renal) of the same compound?
Its TGI is > 100 µM.

What about the GI50 (RXF 393 renal) of the same compound?
The GI50 was 0.171 µM.

And the TGI (RXF 393 renal)?
The TGI was 0.503 µM.

And the GI50 (NCI/ADR-RES ovarian)?
The GI50 was 0.327 µM.

What about the TGI (NCI/ADR-RES ovarian) of the same compound?
The TGI was > 36.1 µM.

What about the GI50 (DU-145 prostate) of the same compound?
The GI50 was 0.441 µM.

What about the TGI (DU-145 prostate) of the same compound?
The TGI was > 100 µM.

And the TGI (TK-10 renal)?
Its TGI is > 100 µM.

And the GI50 (SK-MEL-5 melanoma)?
Its GI50 is 0.614 µM.

And the TGI (SK-MEL-5 melanoma)?
Its TGI is 22.7 µM.

What about the GI50 (UACC-62 melanoma) of the same compound?
Its GI50 is 0.39 µM.

And the TGI (UACC-62 melanoma)?
Its TGI is > 100 µM.

What about the GI50 (PC-3 prostate) of the same compound?
Its GI50 is 0.359 µM.

What about the TGI (PC-3 prostate) of the same compound?
Its TGI is > 100 µM.

And the GI50 (SR leukemia)?
Its GI50 is 0.194 µM.

What about the TGI (SR leukemia) of the same compound?
Its TGI is > 100 µM.

And the GI50 (HCT-116 colon)?
Its GI50 is 0.371 µM.

What about the TGI (HCT-116 colon) of the same compound?
The TGI was 19.8 µM.

And the GI50 (M14 melanoma)?
The GI50 was 0.234 µM.

And the TGI (M14 melanoma)?
Its TGI is 4.67 µM.

And the GI50 (MDA-MB-435)?
Its GI50 is 0.0848 µM.

And the TGI (MDA-MB-435)?
Its TGI is 0.317 µM.

What about the GI50 (MCF7 breast) of the same compound?
The GI50 was 0.301 µM.

What about the TGI (MCF7 breast) of the same compound?
The TGI was > 100 µM.

And the GI50 (HOP-92 NSCLC)?
The GI50 was 2.78 µM.

What about the TGI (HOP-92 NSCLC) of the same compound?
The TGI was > 30.3 µM.

What about the GI50 (SF-295 CNS) of the same compound?
Its GI50 is 0.282 µM.

What about the TGI (SF-295 CNS) of the same compound?
Its TGI is > 71.6 µM.

And the GI50 (OVCAR-5 ovarian)?
Its GI50 is 0.521 µM.

What about the TGI (OVCAR-5 ovarian) of the same compound?
The TGI was > 100 µM.

What about the GI50 (SW-620 colon) of the same compound?
The GI50 was 0.394 µM.

What about the TGI (SW-620 colon) of the same compound?
Its TGI is > 100 µM.

And the GI50 (HOP-62 NSCLC)?
The GI50 was 0.567 µM.

And the TGI (HOP-62 NSCLC)?
The TGI was > 100 µM.

And the GI50 (UO-31 renal)?
Its GI50 is 0.718 µM.

And the TGI (UO-31 renal)?
Its TGI is > 100 µM.

And the GI50 (SNB-19 CNS)?
The GI50 was 0.468 µM.

What about the TGI (SNB-19 CNS) of the same compound?
Its TGI is > 100 µM.

What about the GI50 (CCRF-CEM leukemia) of the same compound?
Its GI50 is 0.342 µM.

What about the TGI (CCRF-CEM leukemia) of the same compound?
The TGI was > 100 µM.

What about the GI50 (COLO 205 colon) of the same compound?
The GI50 was 0.3 µM.

And the TGI (COLO 205 colon)?
Its TGI is 0.945 µM.

What about the GI50 (NCI-H226 lung) of the same compound?
The GI50 was 0.754 µM.

And the TGI (NCI-H226 lung)?
The TGI was > 100 µM.

What about the GI50 (KM12 colon) of the same compound?
The GI50 was 0.148 µM.

What about the TGI (KM12 colon) of the same compound?
The TGI was > 100 µM.

And the GI50 (NCI-H23 lung)?
Its GI50 is 0.474 µM.
